Measurements published in patent US9856279B2 (AGIOS PHARMACEUTICALS, INC, priority 2011, dated 2018).
pIC50: −log10 of the molar value.

Target: IDH1 R132H (Homo sapiens, UniProt O75874, R132H)
Experiment: Assay for IDH1 R132H inhibitors (NADPH/aKG, resazurin detection)
Assay type: biochemical
Settings: Table 3; enzyme assay, 50 minutes at room temperature; read-out: IC50 (IDH1 R132H Inhibition)
Experimental: Assays were conducted in a volume of 76 μl assay buffer (150 mM NaCl, 10 mM MgCl2, 20 mM Tris pH 7.5, 0.03% bovine serum albumin) as follows in a standard 384-well plate: To 25 ul of substrate mix (8 uM NADPH, 2 mM aKG), 1 μl of test compound was added in DMSO. The plate was centrifuged briefly, and then 25 μl of enzyme mix was added (0.2 μg/ml IDH1 R132H) followed by a brief centrifugation and shake at 100 RPM. The reaction was incubated for 50 minutes at room temperature, then 25 μl of detection mix (30 μM resazurin, […]) was added and the mixture further incubated for 5 minutes at room temperature. The conversion of resazurin to resorufin was detected by fluorescent spectroscopy at Ex544 Em590 c/o 590.

Sequence of IDH1 R132H (O75874 whole entry R132H): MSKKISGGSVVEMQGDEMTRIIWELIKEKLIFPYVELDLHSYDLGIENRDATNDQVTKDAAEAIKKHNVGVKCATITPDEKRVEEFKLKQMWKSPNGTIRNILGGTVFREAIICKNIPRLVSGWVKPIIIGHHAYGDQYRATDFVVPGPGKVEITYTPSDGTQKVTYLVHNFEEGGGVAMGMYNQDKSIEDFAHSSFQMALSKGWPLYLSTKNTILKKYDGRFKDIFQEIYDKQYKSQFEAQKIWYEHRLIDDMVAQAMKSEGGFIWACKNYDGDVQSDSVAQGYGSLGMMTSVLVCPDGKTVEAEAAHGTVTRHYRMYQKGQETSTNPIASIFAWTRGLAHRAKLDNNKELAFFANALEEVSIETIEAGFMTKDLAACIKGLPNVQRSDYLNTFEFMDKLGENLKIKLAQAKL

pIC50	SMILES
4.82 to 5.30	Cc1cccc(-c2cc(C#N)c(N3CCN(C(=O)c4ccco4)[C@H](C)C3)nc2C(C)C)c1 [Compound 190]
5.30 to 6.00	C[C@@H]1CN(c2nc(C3CCCCC3)cc(-c3ccccc3)c2C#N)C[C@H](C)N1C(=O)c1ccoc1 [Compound 142, 6-cyclohexyl-2-((3S,5R)-4-(furan-3-carbonyl)-3,5-dimethylpiperazin-1-yl)-4-phenylnicotinonitrile]
4.82 to 5.30	CC(C)c1cc(-c2ccccc2)c(C#N)c(N2CCN(C(=O)c3ccoc3)C(c3ccccc3)C2)n1 (centres unmarked) [Compound 154, 2-(4-(furan-3-carbonyl)-3-phenylpiperazin-1-yl)-6-isopropyl-4-phenylnicotinonitrile]
5.30 to 6.00	COCCC(=O)N1CCN(c2nc(C(C)C)c(-c3cccc4ccccc34)cc2C#N)C[C@H]1C [Compound 217, (R)-6-isopropyl-2-(4-(3-methoxypropanoyl)-3-methylpiperazin-1-yl)-5-(naphthalen-1-yl)nicotinonitrile]
≥ 6.00	COCCC(=O)N1CCN(c2nc(C(C)C)c(-c3ccc(F)cc3)cc2C#N)C[C@H]1C [Compound 207, (R)-5-(4-fluorophenyl)-6-isopropyl-2-(4-(3-methoxypropanoyl)-3-methylpiperazin-1-yl)nicotinonitrile]
5.30 to 6.00	COCCC(=O)N1CCN(c2nc(C(C)C)c(-c3ccc(C(C)C)cc3)cc2C#N)C[C@H]1C [Compound 208, (R)-6-isopropyl-5-(4-isopropylphenyl)-2-(4-(3-methoxypropanoyl)-3-methylpiperazin-1-yl)nicotinonitrile]
4.82 to 5.30	COCCC(=O)N1CCN(c2nc(C(C)C)c(-c3cncnc3)cc2C#N)C[C@H]1C [Compound 210, (R)-6-isopropyl-2-(4-(3-methoxypropanoyl)-3-methylpiperazin-1-yl)-5-0γ(pyrimidin-5-yl)nicotinonitrile]
5.30 to 6.00	CC(C)c1cc(-c2ccccc2)c(C#N)c(N2CCN(C(=O)c3c[nH]c4ccccc34)CC2c2ccccc2)n1 (centres unmarked) [Compound 169, 2-(4-(1H-indole-3-carbonyl)-2-phenylpiperazin-1-yl)-6-isopropyl-4-phenylnicotinonitrile]
5.30 to 6.00	CC(C)c1cc(-c2cccc(O)c2)c(C#N)c(N2CCN(C(=O)c3ccoc3)[C@H](C)C2)n1 [Compound 152, (R)-2-(4-(furan-3-carbonyl)-3-methylpiperazin-1-yl)-4-(3-hydroxyphenyl)-6-isopropylnicotinonitrile]
5.30 to 6.00	CC(C)c1nc(N2CCN(C(=O)c3ccoc3)C(C)C2)c(C#N)cc1-c1ccccc1 (centres unmarked) [Compound 120, 2-(4-(furan-3-carbonyl)-3-methylpiperazin-1-yl)-6-isopropyl-5-phenylnicotinonitrile]
4.82 to 5.30	COc1ccccc1-c1cc(C(C)C)nc(N2CCN(C(=O)c3ccoc3)CC2)c1C#N [Compound 113, 2-(4-(furan-3-carbonyl)piperazin-1-yl)-6-isopropyl-4-(2-methoxyphenyl)nicotinonitrile]

Same assay, conditions: enzyme assay of Example 12; read-out: IDH1R132H IC50

pIC50	SMILES
6.00 to 6.30	C=Cc1cc(-c2cc(C#N)c(N3CCN(C(=O)CN4CCCC4=O)[C@H](C4CC4)C3)nc2C2CC2)ccn1 [Compound 814, (R)-2-cyclopropyl-6-(3-cyclopropyl-4-(2-(2-oxopyrrolidin-1-yl)acetyl)piperazin-1-yl)-2′-vinyl-3,4′-bipyridine-5-carbonitrile]
> 6.30	C=Cc1cc(-c2cc(C#N)c(N3CCN(C(=O)C[C@H]4CCC(=O)O4)[C@H](C4CC4)C3)nc2C2CC2)ccn1 [Compound 821]
6.00 to 6.30	COCCC(=O)N1CCN(c2nc(C3CC3)c(-c3cccc(CO)c3)cc2C#N)C[C@H]1C [Compound 306, (R)-6-cyclopropyl-5-(3-(hydroxymethyl)phenyl)-2-(4-(3-methoxypropanoyl)-3-methylpiperazin-1-yl)nicotinonitrile]
6.00 to 6.30	COCCC(=O)N1CCN(c2nc(C3CC3)c(-c3cccc(N(C)C(=O)C(F)F)c3)cc2C#N)C[C@H]1C [Compound 455]
6.00 to 6.30	COCCC(=O)N1CCN(c2nc(C3CC3)c(-c3cccc(N(C)C)c3)cc2C#N)C[C@H]1C [Compound 413, (R)-6-cyclopropyl-5-(3-(dimethylamino)phenyl)-2-(4-(3-methoxypropanoyl)-3-methylpiperazin-1-yl)nicotinonitrile]
> 6.30	C=Cc1cc(-c2c(C3CC3)nc(N3CCN(C(=O)/C=C/CCO)[C@H](C(C)C)C3)c(C#N)c2C)ccn1 [Compound 795, (R,E)-2-cyclopropyl-6-(4-(5-hydroxypent-2-enoyl)-3-isopropylpiperazin-1-yl)-4-methyl-2′-vinyl-3,4′-bipyridine-5-carbonitrile]
> 6.30	C[C@@H]1CN(c2nc(C3CC3)c(-c3cccc4cnccc34)cc2C#N)CCN1C(=O)C1CC1 [Compound 556, (R)-2-(4-(cyclopropanecarbonyl)-3-methylpiperazin-1-yl)-6-cyclopropyl-5-(isoquinolin-5-yl)nicotinonitrile]
6.00 to 6.30	COCCC(=O)N1CCN(c2nc(C3CC3)c(-c3ccccc3CO)cc2C#N)C[C@H]1C [Compound 344, (R)-6-cyclopropyl-5-(2-hydroxymethyl-phenyl)-2-[4-(3-methoxy-propionyl)-3-methyl-piperazin-1-yl]-nicotinonitrile]
> 6.30	C[C@@H]1CN(c2nc(C3CC3)c(Oc3ccnc(Cl)c3)cc2C#N)CCN1C(=O)CCO [Compound 704, (R)-5-((2-chloropyridin-4-yl)oxy)-6-cyclopropyl-2-(4-(3-hydroxypropanoyl)-3-methylpiperazin-1-yl)nicotinonitrile]
> 6.30	Cn1ncc(-c2cc(C#N)c(N3CCN(C(=O)C4CC4)[C@H](C4CC4)C3)nc2C2CC2)cc1=O [Compound 640, (R)-2-(4-(cyclopropanecarbonyl)-3-cyclopropylpiperazin-1-yl)-6-cyclopropyl-5-(1-methyl-6-oxo-1,6-dihydropyridazin-4-yl)nicotinonitrile]
> 6.30	C=Cc1ccnc(N(c2cc(C=C)ccn2)c2cc(C#N)c(N3CCN(C(=O)CCOC)[C@H](C)C3)nc2C2CC2)c1 [Compound 646, (R)-5-(bis(4-vinylpyridin-2-yl)amino)-6-cyclopropyl-2-(4-(3-methoxypropanoyl)-3-methylpiperazin-1-yl)nicotinonitrile]
> 6.30	COCCC(=O)N1CCN(c2nc(C3CC3)c(-c3ccc(S(C)(=O)=O)cc3)c(C)c2C#N)C[C@H]1C [Compound 319, (R)-6-cyclopropyl-5-(4-methanesulfonyl-phenyl)-2-[4-(3-methoxy-propionyl)-3-methyl-piperazin-1-yl]-4-methyl-nicotinonitrile]
6.00 to 6.30	COCCC(=O)N1CCN(c2nc(C3CC3)c(-c3ccc4nnnn4c3)cc2C#N)C[C@H]1C [Compound 370, (R)-6-cyclopropyl-2-[4-(3-methoxy-propionyl)-3-methyl-piperazin-1-yl]-5-tetrazolo[1,5-a]pyridin-6-yl-nicotinonitrile]
6.00 to 6.30	CCCOc1ccc(-c2c(C3CC3)nc(N3CCN(C(=O)CCOC)[C@H](C)C3)c(C#N)c2C)cc1 [Compound 337, (R)-6-cyclopropyl-2-[4-(3-methoxy-propionyl)-3-methyl-piperazin-1-yl]-4-methyl-5-(4-propoxy-phenyl)-nicotinonitrile]
6.00 to 6.30	COCCC(=O)N1CCN(c2nc(C3CC3)c(-c3cccs3)cc2C#N)C[C@H]1C [Compound 273, (R)-6-cyclopropyl-2-(4-(3-methoxypropanoyl)-3-methylpiperazin-1-yl)-5-(thiophen-2-yl)nicotinonitrile]
